# Data: patent US20090170759A1, “NEUROPROTECTIVE PEPTIDES” (priority 2007, published 2009)
# Tests used:
# [1] = tested on: rat cerebral cortical cultures; test: Neurite outgrowth assay (MAP2-FITC immunofluorescence), cortical cultures; assay type: cell-based; conditions: figure legends
# From the text: (§1) Dissociated hippocampal and cortical cell cultures were established from embryonic day 18 rat fetuses as previously described (Mattson et al., 1994). Briefly, fetuses were removed via cesarean section from pregnant moms (Sprague-Dawley) anesthetized with halothane according to the AVMA Panel on Euthanasia. Pups were decapitated and the brains were removed and placed in HEPES-buffered Hank's Balanced Salt solution (HBSS; Gibco). The hippocampi and cortices were dissected out and pooled according to tissue-type. Tissue was trypsinized for 15 min (1 mg/ml trypsin-HBSS; Worthington), rinsed with fresh HBSS, incubated in trypsin inhibitor (1 mg/ml; Sigma) for 5 min, rinsed again with fresh HBSS and then triturated in 1 ml fresh HBSS with a fire-polished glass pipette. Dissociated cells were seeded at 30,000 cells/well onto poly-D-lysine coated 96-well plates (Collaborative BioScience). Each well contained 100 μl of Eagle's Minimal Essential Media (MEM; Gibco) supplemented with 26 mM NaHCO3 (Sigma), 56 mM glucose (Sigma), 15 mM KCl (Sigma), 1 mM sodium pyruvate (Sigma), 1.1 mM L-glutamine (Sigma), 10% (v/v) heat-inactivated fetal bovine serum (Hyclone), and 0.001% gentamicin sulfate (Sigma) (pH 7.4). Cells were allowed to attach for 24 h in a humidified 37° C. 5% CO2 incubator before experimental treatment. The culture media was aspirated and exchanged with fresh media every three days.
# (§2) Twenty-four hours after plating, cultures were treated with vehicle (PBS+0.1% BSA), 100 ng of various growth factors (brain derived neurotrophic factor (BDNF; Promega), glial-derived neurotrophic factor (GDNF; Promega), nerve growth factor (NGF; Boehringer Mannheim), basic fibroblast growth factor (bFGF; Boehringer Mannheim), insulin-like growth factor-1 (IGF-1; Boehringer Mannheim), neurotrophin-3 (NT3; Calbiochem), neurotrophin-4 (NT4; Calbiochem), ciliary neurotrophic factor (CNTF; Calbiochem), epidermal growth factor (EGF; Calbiochem), vascular endothelial growth factor (VEGF; Calbiochem)), or rhEPO (prepared same as above; 10 fM-10 nM)). Each treatment condition was run in quadruplicate or octuplicate. On the third day in culture, the media was aspirated off and replaced with fresh media and test compound. At one week in culture, the cells were fixed with 10% phosphate-buffered formalin for 15 min, then rinsed with DPBS (Sigma) and placed in blocking serum for 30 min (horse serum; 1:50 dilution in DPBS; Vector Labs). Cultures were rinsed again with DPBS and then incubated in primary antibody for 2 hr (microtubule-associated protein-2 (MAP-2) is a selective marker for dendritic processes; anti-mouse monoclonal (Chemicon); 1:1000 dilution of MAP-2 in antibody diluent (Zymed)). Negative control wells were incubated in antibody diluent alone. Background signal was determined by blank wells (cell-free) incubated with or without antibody. Cultures were rinsed again with DPBS and then placed in fluorescein for 1 hr (FITC; anti-mouse IgG; rat adsorbed; 1:50 dilution in DPBS; Vector Labs). Cultures were rinsed a final time with DPBS and then the plates were read on a Cytofluor 4000 fluorescence plate reader. Neurite outgrowth was expressed as percent change from control (vehicle; mean fluorescence±SD).
# (§3) Dissociated hippocampal and cortical cell cultures were established from embryonic day 18 rat fetuses as previously described (Mattson et al., 1994). Briefly, fetuses were removed via cesarean section from pregnant moms (Sprague-Dawley) anesthetized with halothane according to the AVMA Panel on Euthanasia. Pups were decapitated and the brains were removed and placed in HEPES-buffered Hank's Balanced Salt solution (HBSS; Gibco). The hippocampi and cortices were dissected out and pooled according to tissue-type. […]
# rat hippocampal cultures = test: Neurite outgrowth assay (MAP2-FITC immunofluorescence), hippocampal cultures; assay type: cell-based; conditions: for neurite outgrowth in rat hippocampal cultures (in words): figure legends
# From the text: as §1, §2, §3
Sequence,neurite outgrowth in rat cerebral cortical cultures (in words) [1],neurite outgrowth in rat hippocampal cultures (in words) (rat hippocampal cultures),"neurite outgrowth increase over vehicle at peak activity, hippocampal cultures (rat hippocampal cultures; Example 4, 10 fM-10 nM tested)"
GGTASCHFGPLTWVCKPQGG [EMP-6],promotes neurite outgrowth,promotes neurite outgrowth,
GGTYSCFGPLTWVCKPQGG [EMP-27],promotes neurite outgrowth,promotes neurite outgrowth,
GGTYSCHFAPLTWVCKPQGG [EMP-9],promotes neurite outgrowth,promotes neurite outgrowth,
GGTYSCHFGPLTWVCKPQGG [EMP-1],promotes neurite outgrowth,promotes neurite outgrowth,
YCHFGPLTWVC [EMP-23],promotes neurite outgrowth,promotes neurite outgrowth,43-46%
